# Legend:
# PMH from Npc1+/+ mice [1] = test: Filipin and cytochrome c co-staining, confocal microscopy (mitochondrial cholesterol); type: cell-based, mouse; conditions: 16 hours
# Experimental: (§1) PMH were isolated by collagenase perfusion at a flow rate of 7-9ml/min and cultured at a density of 2×10^5 cells in 12-well plates coated with rat tail collagen. Hepatocytes were cultured in DMEM/F12 culture media (Gibco, 21331-020) supplemented with 10% FBS for the first 3 hours post isolation, together with 10.000U/ml Penicillin-Streptomycin (Gibco, 15140-122), 200mM L-Glutamine (Gibco, 25030-024), 7.5mM D-Glucose (Sigma, G6152) and 150mM Hepes pH 7.4 (Sigma,). For subsequent treatments, FBS was replaced for 1mM methionine (Sigma, M5308).
# (§2) PMH from Npc1^+/+ and human Npc^+/+ control fibroblasts were treated with U18666A (2µg/ml) or HMβCD (2mM) for 16 hours. In some other cases, PMH from Npc1^-/- and Npc^-/- fibroblast from NPC patients were treated with HMβCD as above for control PMH.
# (§3) PMH were fixed for 15min with 3.7% paraformaldehyde and permeabilized for 5min with 0.2% saponin dissolved in 0.5% BSA-fatty acid free (FAF) in PBS commercial buffer. Cells were blocked with 1% BSA FAF for 15minutes. Cytochrome c (Cytc) (BD Pharmigen, #556432) and Lamp2 (Abcam, #ab13524) primary antibodies were incubated overnight in BSA 1% followed by a secondary antibody for 1 hour at room temperature in BSA 0.1%. Filipin ([…], Sigma) was added during the secondary antibody incubation and the following steps were performed in the dark. Stained samples were embedded in fluoromont (Sigma) and digital images were taken in a Leica SP2 laser scanning confocal microscope equipped with UV excitation, an argon laser, a 633/1.32 OIL PH3 CS objective and a confocal pinhole set at 1 Airy unit. All the confocal images shown were single optical sections. Scale bar represents 25 µm. Percentage of cholesterol mass containing mitochondria was analyzed with the Colocalization nBits nimages plugin (Confocal Microscopy Unit, Facultad de Medicina, Universidad de Barcelona) in the ImageJ Software in 5 consecutive images of each experimental condition.
# PMH from Npc1-/- mice = test: as above; type: cell-based, mouse; conditions: HMβCD 2mM, 16 hours
# Experimental: as §1, §2, §3
# MLN64 [2] = test: Western blot of MLN64 protein expression in human fibroblasts; type: cell-based; conditions: HMβCD 2mM, 16 hours, co-treatment with U18666A; control Npc+/+ fibroblasts
# Experimental: as §2
# Fibroblasts from NPC patients were transfected with cDNA to overexpress ACDase (ASAH1) (SEQ ID NO: 5; MGC Human ASAH1 Sequence-Verified cDNA Accession: BC016481 Clone ID: 3923451) commercially purchased from GE Dharmacon. Transfection was performed using Lipofectamine2000 (Invitrogen). Briefly, 250000 fibroblasts were incubated with the transfection mixtures containing 250ng of the sobrexpression ACDase vector or the scrambled control-GFP vector. Cells were assayed 48 h after transfection for mRNA and protein levels. […]
# 100mg of liver were homogenized with a pestle homogenizer in 1ml of homobuffer (70mM saccharose, 220mM mannitol, 2mM Tris-HCI pH 7.4, 0,1mM EDTA, 0.1% fatty acid free BSA) supplemented with protease and phosphatase inhibitors (Roche). […] All supernatants were collected and quantified for protein concentration using Quick-Bradford reagent (Bio-Rad) and 20-50µg of protein were subjected to 4-12% SDS-polyacrylamide gel electrophoresis (SDS-PAGE) (Bio-Rad, XT-Criterion). […] Images were digitally captured by LAS4000 (GE Healthcare) and optical density was analyzed with ImageJ software.
# Npc+/+ fibroblasts = test: Filipin and cytochrome c co-staining, confocal microscopy (mitochondrial cholesterol); type: cell-based, human; conditions: HMβCD 2mM, 16 hours, co-treatment with U18666A; Npc+/+ fibroblasts from control patients
# Experimental: (§4) Fibroblasts from patients with NPC disease used have been previously described (Torres et al., Redox Biol. 2017 Apr;11:60-72). Briefly, cultured human skin fibroblasts from control individuals (HSF; GM5659D) and patients with NPC disease were a generous gift from Thierry Levade, Laboratoire de Biochimie Metabolique, Institut Federatif de Biologie (CHU Toulouse, France) or obtained from Coriell Institute for Medical Research (GM03123, NJ, USA) and were grown at 37°C in 5% CO2. DMEM (Gibco) culture medium was supplemented with 10% fetal bovine serum (FBS, Gibco, 10-270-106) and 10.000U/ml Penicillin-Streptomycin (Gibco, 15140-122).
# as §2
# (§5) PMH were fixed for 15min with 3.7% paraformaldehyde and permeabilized for 5min with 0.2% saponin dissolved in 0.5% BSA-fatty acid free (FAF) in PBS commercial buffer. Cells were blocked with 1% BSA FAF for 15minutes. […] Percentage of cholesterol mass containing mitochondria was analyzed with the Colocalization nBits nimages plugin (Confocal Microscopy Unit, Facultad de Medicina, Universidad de Barcelona) in the ImageJ Software in 5 consecutive images of each experimental condition.
# [3] = tested on: Npc1 gene-defective (Npc1-/-) mice; conditions: cited from earlier work
# ACDase [4] = test: Western blot of ACDase protein expression in human fibroblasts; type: cell-based; conditions: 16 hours
# Experimental: as §2
# (§6) Fibroblasts from NPC patients were transfected with cDNA to overexpress ACDase (ASAH1) (SEQ ID NO: 5; MGC Human ASAH1 Sequence-Verified cDNA Accession: BC016481 Clone ID: 3923451) commercially purchased from GE Dharmacon. Transfection was performed using Lipofectamine2000 (Invitrogen). Briefly, 250000 fibroblasts were incubated with the transfection mixtures containing 250ng of the sobrexpression ACDase vector or the scrambled control-GFP vector. Cells were assayed 48 h after transfection for mRNA and protein levels. SEQ ID NO: 5 >ENA|BC016481|BC016481.1 Homo sapiens N-acylsphingosine amidohydrolase (acid ceramidase) 1, mRNA (cDNA clone MGC:9327 IMAGE:3923451), complete cds. [formula] [formula] [formula]
# (§7) 100mg of liver were homogenized with a pestle homogenizer in 1ml of homobuffer (70mM saccharose, 220mM mannitol, 2mM Tris-HCI pH 7.4, 0,1mM EDTA, 0.1% fatty acid free BSA) supplemented with protease and phosphatase inhibitors (Roche). Liver homogenates were diluted 4 times with RIPA lysis buffer (Sigma) with anti-proteases and anti-phosphatases. Cells were washed with PBS and lysed with ice-cold RIPA lysis buffer supplemented with protease and phosphatase inhibitors. Samples were incubated 15min at 4°C, vortexed and spinned down for 5min at 10000rpm. All supernatants were collected and quantified for protein concentration using Quick-Bradford reagent (Bio-Rad) and 20-50µg of protein were subjected to 4-12% SDS-polyacrylamide gel electrophoresis (SDS-PAGE) (Bio-Rad, XT-Criterion). Proteins were electrotransferred at 4°C onto Hybond ECL nitrocellulose membranes (Amersham) and 5% BSA solution in TBS-Tween was used to block the membranes for 1h at room temperature. […] Images were digitally captured by LAS4000 (GE Healthcare) and optical density was analyzed with ImageJ software.
# NPC child patients = conditions: intravenous instillation 2500 mg/kg per time, 1 to 3 times per week, more than 1 year; cited from earlier work
# STARD1 [5] = test: Western blot of STARD1 protein expression in human fibroblasts; type: cell-based; conditions: 16 hours
# Experimental: as §2, §6, §7
# [6] = tested on: Npc-/- fibroblasts from NPC patients; test: Filipin and cytochrome c co-staining, confocal microscopy (mitochondrial cholesterol); type: cell-based, human; conditions: HMβCD 2mM, 16 hours
# Experimental: as §4
# PMH from Npc1^+/+ and human Npc^+/+ control fibroblasts were treated with U18666A (2µg/ml) or HMβCD (2mM) for 16 hours. In some other cases, PMH from Npc1^-/- and Npc^-/- fibroblast from NPC patients were treated with HMβCD as above for control PMH. […]
# as §5, with “buffer.” for “buffer. Cells were blocked with 1% BSA FAF for 15minutes.”
# ACDase [7] = test: Western blot of ACDase protein expression in primary mouse hepatocytes; type: cell-based; conditions: 16 hours
# Experimental: as §2
# (§8) 100mg of liver were homogenized with a pestle homogenizer in 1ml of homobuffer (70mM saccharose, 220mM mannitol, 2mM Tris-HCI pH 7.4, 0,1mM EDTA, 0.1% fatty acid free BSA) supplemented with protease and phosphatase inhibitors (Roche). Liver homogenates were diluted 4 times with RIPA lysis buffer (Sigma) with anti-proteases and anti-phosphatases. Cells were washed with PBS and lysed with ice-cold RIPA lysis buffer supplemented with protease and phosphatase inhibitors. Samples were incubated 15min at 4°C, vortexed and spinned down for 5min at 10000rpm. All supernatants were collected and quantified for protein concentration using Quick-Bradford reagent (Bio-Rad) and 20-50µg of protein were subjected to 4-12% SDS-polyacrylamide gel electrophoresis (SDS-PAGE) (Bio-Rad, XT-Criterion). Proteins were electrotransferred at 4°C onto Hybond ECL nitrocellulose membranes (Amersham) and 5% BSA solution in TBS-Tween was used to block the membranes for 1h at room temperature. Membranes were incubated overnight with the following primary antibodies: anti-PDI (Cell Signaling, 24465), anti-CHOP (Cell Signaling, 2895S), anti-Phospho eiF2A (Cell Signaling, 9721S), anti-eiF2A (Cell Signaling, 9722) and anti-STARD1 (Abcam, ab58013), anti-BIP (Stressgen, SPA826), anti-XBP1 (Santa Cruz, CS-8015) and anti-Mln64 (Santa Cruz SC-292868), ACDAse (Sigma, SAB3500293), LRH-1 (Santa Cruz, Cs-393369) and anti-β-Actin HRP-conjugated (Sigma, A3854). Membranes were thoroughly washed with TBS-Tween and incubated for 45min with their respective HRP-conjugated secondary antibodies. Pierce ECL Western Blotting Substrate (Thermo Scientific) was used to develop the membranes. Images were digitally captured by LAS4000 (GE Healthcare) and optical density was analyzed with ImageJ software.
# STARD1 [8] = test: Western blot of STARD1 protein expression in primary mouse hepatocytes; type: cell-based; conditions: 16 hours
# Experimental: as §2, §8
# MLN64 [9] = test: Western blot of MLN64 protein expression in primary mouse hepatocytes; type: cell-based; conditions: HMβCD 2mM, 16 hours, co-treatment with U18666A; PMH from Npc1+/+ mice
# Experimental: as §2, §7
# ER stress markers = test: Western blot of ER stress markers in primary mouse hepatocytes; type: cell-based; conditions: incubation of Npc1+/+ PMH with U18666A
# Experimental: as §2, §7
# PMH from Npc1+/+ mice [10] = test: Filipin and Lamp2 co-staining, confocal microscopy (lysosomal cholesterol); type: cell-based, mouse; conditions: U18666A 2µg/ml, 16 hours
# Experimental: as §1, §2, §5
# patients = conditions: NPC patients; cited from earlier work
# [11] = tested on: ER stress markers (BIP, PDI and CHOP); test: Western blot of ER stress markers in human fibroblasts; type: cell-based; conditions: control Npc+/+ fibroblasts
# Experimental: as §7
# [12] = HMβCD 2mM, co-treatment with U18666A, PMH from Npc1+/+ mice
# [13] = HMβCD 2mM, co-treatment with U18666A, control Npc+/+ fibroblasts
# [14] = HMβCD 2mM, Npc-/- fibroblasts from NPC patients, no U18666A
# [15] = HMβCD 2mM, PMH from Npc1-/- mice, no U18666A
# [16] = U18666A 2µg/ml, PMH from Npc1+/+ mice
compound,measurement,setting,value
"CC(O)COC[C@H]1O[C@@H]2O[C@H]3[C@H](O)[C@@H](O)[C@@H](O[C@H]4[C@H](O)[C@@H](O)[C@@H](O[C@H]5[C@H](O)[C@@H](O)[C@@H](O[C@H]6[C@H](O)[C@@H](O)[C@@H](O[C@H]7[C@H](O)[C@@H](O)[C@@H](O[C@H]8[C@H](O)[C@@H](O)[C@@H](O[C@H]1[C@H](O)[C@H]2O)O[C@@H]8COCC(C)O)O[C@@H]7COCC(C)O)O[C@@H]6COCC(C)O)O[C@@H]5COCC(C)O)O[C@@H]4COCC(C)O)O[C@@H]3COCC(C)O (stereo partly drawn) [HMβCD, 2-hydroxypropyl-β-cyclodextrin]",U18666A-induced cholesterol accumulation and trafficking to mitochondria,PMH from Npc1+/+ mice [1]; [12],prevented U18666A-induced cholesterol accumulation and trafficking to mitochondria
same,mitochondrial cholesterol increase,PMH from Npc1-/- mice,exhibited the same changes induced by HMβCD
same,increased expression of MLN64 induced by U18666A,MLN64 [2],prevented the increased expression of MLN64
same,U18666A-induced cholesterol accumulation and trafficking to mitochondria,Npc+/+ fibroblasts,prevented U18666A-induced cholesterol accumulation and trafficking to mitochondria
same,"improving effect, direct administration into the brain compared with systemic administration","[3]; directly administered into the brain, Npc1-/- mice",increased a few hundred times
same,medical state or survival,"[3]; intravenously administered, Npc1-/- mice",effective in improving the medical state or prolonging survival
same,crossing of the blood brain barrier,"[3]; mouse, in vivo",inability of HPBCD to cross the blood brain barrier
same,repression of ACDase induced by U18666A,ACDase [4]; [13],reverse the increase of STARD1 and the repression of ACDase
same,expression levels of ACDase,ACDase [4]; [14],exhibited the same changes induced by HMβCD
same,nervous symptom,NPC child patients,saw no improvement
same,side effects,NPC child patients,severe side effects have been observed
same,splenomegaly and brain wave,NPC child patients,certain effect of reduction of splenomegaly and improvement in a brain wave
same,increase of STARD1 induced by U18666A,STARD1 [5]; [13],reverse the increase of STARD1
same,expression levels of STARD1,STARD1 [5]; [14],exhibited the same changes induced by HMβCD
same,mitochondrial cholesterol increase,[6],exhibited the same changes induced by HMβCD
same,repression of ACDase induced by U18666A,ACDase [7]; [12],reverse the increase of STARD1 and the repression of ACDase
same,expression levels of ACDase,ACDase [7]; [15],exhibited the same changes induced by HMβCD
same,increase of STARD1 induced by U18666A,STARD1 [8]; [12],reverse the increase of STARD1
same,expression levels of STARD1,STARD1 [8]; [15],exhibited the same changes induced by HMβCD
same,increased expression of MLN64 induced by U18666A,MLN64 [9],prevented the increased expression of MLN64
CCN(CC)CCO[C@H]1CC[C@@]2(C)C(=CC[C@@H]3[C@@H]2CC[C@]2(C)C(=O)CC[C@@H]32)C1 [U18666A],ER stress markers,ER stress markers,failed to induce ER stress markers
same,accumulation of cholesterol in mitochondria (colocalization of filipin and CytC staining),"PMH from Npc1+/+ mice [1]; U18666A 2µg/ml, Npc1+/+ PMH",stimulated the accumulation of cholesterol in mitochondria
same,lysosomal cholesterol accumulation (filipin and Lamp2 staining),PMH from Npc1+/+ mice [10],significantly increased lysosomal cholesterol accumulation
same,expression of ACDase,"ACDase [4]; U18666A 2µg/ml, control Npc+/+ fibroblasts",decreased the expression of ACDase
same,STARD1 expression,"STARD1 [5]; U18666A 2µg/ml, Npc+/+ fibroblasts",significantly increased STARD1
same,expression of ACDase,ACDase [7]; [16],decreased the expression of ACDase
same,STARD1 expression,STARD1 [8]; [16],significantly increased STARD1
CCCCN1C[C@H](O)[C@@H](O)[C@H](O)[C@H]1CO [miglustat],life span of patients,patients,extends the life span of patients
tunicamycin,"markers of ER stress (BIP, PDI and CHOP)",[11],induced markers of ER stress
